Data as given in ChEMBL document CHEMBL1221248, “Synthesis and SAR of (piperazin-1-yl-phenyl)-arylsulfonamides: a novel series of atypical antipsychotic agents” (Bioorg Med Chem Lett, 2010).

Target: 5-hydroxytryptamine receptor 2C (Homo sapiens) (UniProt P28335)
Assay: Antagonist activity at human 5HT2C receptor expressed in CHO cells assessed as inhibition of 5-HT-stimulated [35S]GTPgamma binding

Chain of 5-hydroxytryptamine receptor 2C (Homo sapiens) (P28335 whole entry, looked up): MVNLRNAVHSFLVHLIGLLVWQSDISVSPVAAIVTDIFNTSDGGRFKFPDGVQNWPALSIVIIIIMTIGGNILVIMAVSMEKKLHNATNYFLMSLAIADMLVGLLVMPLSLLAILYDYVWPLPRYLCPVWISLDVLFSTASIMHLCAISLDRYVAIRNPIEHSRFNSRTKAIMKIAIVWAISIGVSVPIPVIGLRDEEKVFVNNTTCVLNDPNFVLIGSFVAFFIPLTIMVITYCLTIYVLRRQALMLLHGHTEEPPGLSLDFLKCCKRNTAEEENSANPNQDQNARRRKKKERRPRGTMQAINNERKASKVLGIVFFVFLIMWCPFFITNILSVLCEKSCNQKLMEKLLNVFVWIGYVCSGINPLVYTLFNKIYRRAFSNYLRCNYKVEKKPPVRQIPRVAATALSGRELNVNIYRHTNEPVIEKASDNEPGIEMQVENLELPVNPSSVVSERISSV

CC(C)N(c1cccc(N2CCN(C)CC2)c1)S(=O)(=O)c1ccc2ccccc2c1
inhibition: Dose-dependent effect
